Data on 22 compounds can be found in US8440708B2, “Triazole-substituted arylamides as P2X3 and P2X2/3 antagonists” (Roche Palo Alto LLC, priority 2007, dated 2013).

Each structure is given as a SMILES string. Like-named read-outs stand apart in the source and are kept apart here.

The target in one test is T1, human P2X2/3 receptor (Homo sapiens, UniProt P56373+Q9UBL9).
T1 construct: expressed in transfected cells; host or cells: CHO-K1
T1 sequence (Q9UBL9 1-471): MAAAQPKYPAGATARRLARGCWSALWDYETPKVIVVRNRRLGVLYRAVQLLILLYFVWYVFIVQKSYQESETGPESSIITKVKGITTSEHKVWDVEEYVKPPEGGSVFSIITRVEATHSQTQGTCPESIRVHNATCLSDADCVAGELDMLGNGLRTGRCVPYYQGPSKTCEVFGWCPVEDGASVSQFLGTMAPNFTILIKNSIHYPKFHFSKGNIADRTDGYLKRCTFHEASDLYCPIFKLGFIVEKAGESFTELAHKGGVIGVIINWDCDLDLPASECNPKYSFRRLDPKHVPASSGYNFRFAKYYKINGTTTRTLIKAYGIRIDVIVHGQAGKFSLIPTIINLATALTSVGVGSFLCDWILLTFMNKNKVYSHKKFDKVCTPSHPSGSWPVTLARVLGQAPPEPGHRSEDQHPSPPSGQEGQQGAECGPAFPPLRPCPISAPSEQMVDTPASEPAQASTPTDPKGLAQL
T1 sequence (P56373 1-397): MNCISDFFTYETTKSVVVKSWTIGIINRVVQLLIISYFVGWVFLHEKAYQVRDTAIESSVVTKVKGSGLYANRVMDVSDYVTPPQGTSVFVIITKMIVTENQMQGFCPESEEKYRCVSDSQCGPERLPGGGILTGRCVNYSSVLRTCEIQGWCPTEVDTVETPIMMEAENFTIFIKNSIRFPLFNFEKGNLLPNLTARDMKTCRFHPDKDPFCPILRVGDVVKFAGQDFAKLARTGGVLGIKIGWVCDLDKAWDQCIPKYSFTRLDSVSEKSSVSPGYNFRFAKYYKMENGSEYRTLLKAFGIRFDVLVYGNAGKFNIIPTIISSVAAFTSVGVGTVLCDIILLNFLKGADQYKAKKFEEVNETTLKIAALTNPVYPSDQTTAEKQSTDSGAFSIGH
Description: P2X3/P2X2/3 FLIPR (Fluorometric Imaging Plate Reader) Assay, P2X2/3. The format is cell-based. The procedure, abridged: (§1)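 Inhibition of α,β-meATP-induced (P2X3 1 μM; P2X2/3 5 μM) intracellular calcium rise was measured by FLIPR in transfected CHO-K1 cells with a 20 min compound preincubation. Values derive from nonlinear regression of peak responses.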

Another test deals with T2, rat P2X3 receptor (Rattus norvegicus, UniProt P49654).
T2 construct: expressed in transfected cells; host or cells: CHO-K1
T2 sequence (P49654 1-397): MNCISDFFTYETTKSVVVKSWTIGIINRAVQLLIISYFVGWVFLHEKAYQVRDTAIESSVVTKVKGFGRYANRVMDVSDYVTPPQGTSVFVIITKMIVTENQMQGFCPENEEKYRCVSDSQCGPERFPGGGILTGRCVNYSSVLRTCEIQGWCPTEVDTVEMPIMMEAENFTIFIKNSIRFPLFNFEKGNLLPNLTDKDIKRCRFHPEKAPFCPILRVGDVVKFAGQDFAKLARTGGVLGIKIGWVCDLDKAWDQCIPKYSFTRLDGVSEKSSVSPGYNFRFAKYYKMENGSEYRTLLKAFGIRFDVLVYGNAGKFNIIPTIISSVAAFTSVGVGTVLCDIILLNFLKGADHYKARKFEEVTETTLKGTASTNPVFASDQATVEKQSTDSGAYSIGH
The test is described as follows: P2X3/P2X2/3 FLIPR (Fluorometric Imaging Plate Reader) Assay, P2X3. The class given is cell-based. As to conditions: CHO-K1 cells transfected with rat P2X3; agonist α,β-meATP 1 μM; Table 1; read-out: P2X3 pKi (converted). The procedure, abridged: as §1

Where [1] appears, read: CHO-K1 cells transfected with human P2X2/3, agonist α,β-meATP 5 μM, Table 1, read-out: P2X2/3 pKi (converted).

On to `Cc1ccc(-c2cc(C(=O)N[C@@H](C)CO)cc(-n3nc(C)nc3C(C)C)c2)cc1` [Compound 29, 5-(5-Isopropyl-3-methyl-[1,2,4]triazol-1-yl)-4′-methyl-biphenyl-3-carboxylic acid ((S)-2-hydroxy-1-methyl-ethyl)-amide], for which the Ki on human P2X2/3 receptor (setting [1]) was 3630 nM; at rat P2X3 receptor it was 46.8 nM.

For `Cc1ccc(-c2cc(C(=O)NC(C)c3cnccn3)cc(-n3ncnc3C(C)C)c2)nc1` (stereo not drawn) [Compound 56, 3-(5-Isopropyl-[1,2,4]triazol-1-yl)-5-(5-methyl-pyridin-2-yl)-N-(1-pyrazin-2-yl-ethyl)-benzamide], the values for the Ki at human P2X2/3 receptor (setting [1]) and at rat P2X3 receptor were 42.7 nM and 4.57 nM, respectively.

For the compound `Cc1ccc(-c2cc(C(=O)NC(C)c3cnccn3)cc(-c3nnc4ccccn34)c2)c(F)c1` (stereo not drawn) [Compound 4, 2′-Fluoro-4′-methyl-5-[1,2,4]triazolo[4,3-a]pyridin-3-yl-biphenyl-3-carboxylic acid (1-pyrazin-2-yl-ethyl)-amide], the values for the Ki on human P2X2/3 receptor (setting [1]) and at rat P2X3 receptor were 1230 nM and 437 nM, respectively.

Consider `Cc1ccc(-c2cc(C(=O)NC(C)c3cnccn3)cc(-n3ncnc3C(C)C)c2)c(F)c1` (stereo not drawn) [Compound 36, 2′-Fluoro-5-(5-isopropyl-[1,2,4]triazol-1-yl)-4′-methyl-biphenyl-3-carboxylic acid (1-pyrazin-2-yl-ethyl)-amide], for which the Ki is 22.9 nM on human P2X2/3 receptor (setting [1]); roughly 22.9 nM at human P2X2/3 receptor (text b666, CHO-K1 cells, α,β-meATP 5 μM, read-out: pKi for the P2X2/3 receptor (converted)); 3.72 nM on rat P2X3 receptor.

In the case of `Cc1ccc(-c2cc(C(=O)NCc3cnc(C)cn3)cc(-n3ncnc3C(C)N(C)C)c2)nc1` (stereo not drawn) [Compound 141, 3-[5-(1-Dimethylamino-ethyl)-[1,2,4]triazol-1-yl]-N-(5-methyl-pyrazin-2-ylmethyl)-5-(5-methyl-pyridin-2-yl)-benzamide], the values for the Ki at human P2X2/3 receptor (setting [1]) and at rat P2X3 receptor were 214 nM and 12.3 nM, respectively.

As for `Cc1ccc(-c2cc(C(=O)N[C@@H](C)CO)cc(-n3ncnc3C(C)(C)C)c2)nc1` [Compound 94, 3-(5-tert-Butyl-[1,2,4]triazol-1-yl)-N-((S)-2-hydroxy-1-methyl-ethyl)-5-(5-methyl-pyridin-2-yl)-benzamide], the figures for the Ki on human P2X2/3 receptor (setting [1]) and on rat P2X3 receptor were 10000 nM and 12.3 nM, respectively.

`Cc1ccc(-c2cc(C(=O)N[C@@H](C)c3cnccn3)cc(-n3ncnc3C(F)(F)F)c2)nc1` [Compound 180, 3-(5-Methyl-pyridin-2-yl)-N-((S)-1-pyrazin-2-yl-ethyl)-5-(5-trifluoromethyl-[1,2,4]triazol-1-yl)-benzamide]: the Ki was 46.8 nM at human P2X2/3 receptor (setting [1]) and 6.61 nM at rat P2X3 receptor.

Regarding `CCc1ncnn1-c1cc(C(=O)NC2CC2)cc(-c2ccc(C)cn2)c1` [Compound 126, N-Cyclopropyl-3-(5-ethyl-[1,2,4]triazol-1-yl)-5-(5-methyl-pyridin-2-yl)-benzamide], the Ki at human P2X2/3 receptor (setting [1]) was 3720 nM; on rat P2X3 receptor it was 29.5 nM.

Consider `Cc1ccc(-c2cc(C(=O)NC(C)CO)cc(-n3cnnc3C(C)C)c2)cc1` (stereo not drawn) [Compound 26, 5-(3-Isopropyl-[1,2,4]triazol-4-yl)-4′-methyl-biphenyl-3-carboxylic acid (2-hydroxy-1-methyl-ethyl)-amide], for which the results for the Ki at human P2X2/3 receptor (setting [1]) and on rat P2X3 receptor were 10000 nM and 155 nM, respectively.

For `CC(C)c1ncnn1-c1cc(C(=O)NC(C)c2cnccn2)cc(-c2ccc(Cl)cn2)c1` (stereo not drawn) [Compound 120, 3-(5-Chloro-pyridin-2-yl)-5-(5-isopropyl-[1,2,4]triazol-1-yl)-N-(1-pyrazin-2-yl-ethyl)-benzamide], the Ki on human P2X2/3 receptor (setting [1]) was 132 nM; at rat P2X3 receptor, 7.59 nM.

Regarding `CC(C)Cc1ncnn1-c1cc(C(=O)N[C@@H](C)CO)cc(-c2ccc(Cl)cn2)c1` [Compound 90, 3-(5-Chloro-pyridin-2-yl)-N-((S)-2-hydroxy-1-methyl-ethyl)-5-(5-isobutyl-[1,2,4]triazol-1-yl)-benzamide], the Ki on human P2X2/3 receptor (setting [1]) was 646 nM; on rat P2X3 receptor, 4.07 nM.

Take `CCCc1ncnn1-c1cc(C(=O)NC(C)c2cnccn2)cc(-c2ccc(C)cn2)c1` (stereo not drawn) [Compound 115, 3-(5-Methyl-pyridin-2-yl)-5-(5-propyl-[1,2,4]triazol-1-yl)-N-(1-pyrazin-2-yl-ethyl)-benzamide]: the Ki on human P2X2/3 receptor (setting [1]) is 79.4 nM; on rat P2X3 receptor, 3.31 nM.

Consider `COCC(C)NC(=O)c1cc(-c2ccc(C)cc2)cc(-n2cncn2)c1` (stereo not drawn) [Compound 2, 4′-Methyl-5-[1,2,4]triazol-1-yl-biphenyl-3-carboxylic acid (2-methoxy-1-methyl-ethyl)-amide], for which the Ki on human P2X2/3 receptor (setting [1]) was 10200 nM; at rat P2X3 receptor it was 1450 nM.

With `Cc1ccc(-c2cc(C(=O)N[C@@H](C)CO)cc(-n3nncc3C(C)C)c2)c(F)c1` [Compound 24, 2′-Fluoro-5-(5-isopropyl-[1,2,3]triazol-1-yl)-4′-methyl-biphenyl-3-carboxylic acid ((S)-2-hydroxy-1-methyl-ethyl)-amide], the Ki was 324 nM on human P2X2/3 receptor (setting [1]) and 3.31 nM on rat P2X3 receptor.

Regarding `CCCc1ncnn1-c1cc(C(=O)N[C@@H](C)CO)cc(-c2ccc(C)cn2)c1` [Compound 114, N-((S)-2-Hydroxy-1-methyl-ethyl)-3-(5-methyl-pyridin-2-yl)-5-(5-propyl-[1,2,4]triazol-1-yl)-benzamide], the values for the Ki on human P2X2/3 receptor (setting [1]) and at rat P2X3 receptor were 2880 nM and 4.79 nM, respectively.

For the compound `Cc1ccc(-c2cc(C(=O)NCc3ccc(C)nn3)cc(-n3ncnc3C3CCC3)c2)nc1` [Compound 152, 3-(5-Cyclobutyl-[1,2,4]triazol-1-yl)-N-(6-methyl-pyridazin-3-ylmethyl)-5-(5-methyl-pyridin-2-yl)-benzamide], the Ki is 23.4 nM on human P2X2/3 receptor (setting [1]) and 5.75 nM at rat P2X3 receptor.

For the compound `Cc1ccc(-c2cc(C(=O)N[C@@H](C)CO)cc(-n3nncc3C)c2)cc1` [Compound 13, 4′-Methyl-5-(5-methyl-[1,2,3]triazol-1-yl)-biphenyl-3-carboxylic acid ((S)-2-hydroxy-1-methyl-ethyl)-amide], the results for the Ki at human P2X2/3 receptor (setting [1]) and on rat P2X3 receptor were 8130 nM and 75.9 nM, respectively.

Regarding `COCCc1ncnn1-c1cc(C(=O)N[C@@H](C)CO)cc(-c2ccc(C)cn2)c1` [Compound 148, N-((S)-2-Hydroxy-1-methyl-ethyl)-3-[5-(2-methoxy-ethyl)-1-[1,2,4]triazol-1-yl]-5-(5-methyl-pyridin-2-yl)-benzamide], the Ki at human P2X2/3 receptor (setting [1]) is 10000 nM; on rat P2X3 receptor, 60.3 nM.

As to `Cc1ccc(-c2cc(C(=O)NCc3cnc(C)cn3)cc(-n3ncnc3C3CCC3)c2)nc1` [Compound 86, 3-(5-Cyclobutyl-[1,2,4]triazol-1-yl)-N-(5-methyl-pyrazin-2-ylmethyl)-5-(5-methyl-pyridin-2-yl)-benzamide], the Ki was 33.1 nM on human P2X2/3 receptor (setting [1]) and 2.29 nM at rat P2X3 receptor.

Turning to `Cc1ccc(-c2cc(C(=O)NC(C)CO)cc(-n3ncnc3C(C)C)c2)cc1` (stereo not drawn) [Compound 16, 5-(5-Isopropyl-[1,2,4]triazol-1-yl)-4′-methyl-biphenyl-3-carboxylic acid (2-hydroxy-1-methyl-ethyl)-amide], the results for the Ki at human P2X2/3 receptor (setting [1]) and on rat P2X3 receptor were 295 nM and 3.55 nM, respectively.

Turning to `CCCc1ncnn1-c1cc(C(=O)NC(C)c2cnccn2)cc(-c2ccc(Cl)cn2)c1` (stereo not drawn) [Compound 110, 3-(5-Chloro-pyridin-2-yl)-5-(5-propyl-[1,2,4]triazol-1-yl)-N-(1-pyrazin-2-yl-ethyl)-benzamide], the Ki at human P2X2/3 receptor (setting [1]) was 355 nM; on rat P2X3 receptor, 7.24 nM.

Consider `CC(C)c1ncnn1-c1cc(C(=O)N[C@@H](C)CO)cc(-c2ccc(Cl)cn2)c1` [Compound 122, 3-(5-Chloro-pyridin-2-yl)-N-((S)-2-hydroxy-1-methyl-ethyl)-5-(5-isopropyl-[1,2,4]triazol-1-yl)-benzamide], for which the figures for the Ki on human P2X2/3 receptor (setting [1]) and at rat P2X3 receptor were 1290 nM and 19.1 nM, respectively.
